Measured values published in US6472416B1, “Sulfonylphenylpyrazole compounds useful as COX-2 inhibitors” (Abbott Laboratories, priority 1999, dated 2002).

`Cc1c(C#N)oc2c(-c3ccc(F)cc3)c(-c3ccc(S(C)(=O)=O)cc3)nn12` [Example 54, 2-Cyano-7-(4-fluorophenyl)-3-methyl-6-(4-(methylsulphonyl)phenyl)pyrazolo[5,1-b][1,3]oxazole] showed a melting point of 236 to 238 °C.
Compound `Cc1c(C#N)oc2c(-c3ccc(F)cc3)c(-c3ccc(S(N)(=O)=O)cc3)nn12` [Example 59, 6-(4-(Aminosulphonyl)phenyl)-2-cyano-7-(4-Fluorophenyl)-3-methyl-pyrazolo[5,1-b][1,3]oxazole] has a melting point of 231 to 232 °C.
Work on `CS(=O)(=O)c1ccc(-c2nn3c(C4C5CC6CC(C5)CC4C6)coc3c2-c2ccc(F)cc2)cc1` (centres unmarked) [Example 39, 3-(2-Adamantyl)-7-(4-fluorophenyl)-6-(4-(methylsulphonyl)phenyl)pyrazolo[5,1-b][1,3]oxazole] yielded a melting point of 128 to 131 °C.
`CC(C)(C)c1coc2c(-c3ccc(F)cc3)c(-c3ccc(S(C)(=O)=O)cc3)nn12` [Example 40, 3-(Tert-butyl)-7-(4-fluorophenyl)-6-(4-(methylsulphonyl)phenyl)pyrazolo[5,1-b][1,3]oxazole] gave a melting point of 181 to 182 °C.
With `CC(C)n1nc(OCC(=O)c2ccc(F)cc2)c(-c2ccc(F)cc2)c1-c1ccc(S(C)(=O)=O)cc1` [Example 19, 2-{[4-(4-Fluorophenyl)-5-(4-(methylsulphonyl)phenyl)-1-isopropyl-1H-pyrazol-3-yl]oxy}-1-(4-fluorophenyl)ethan-1-one] the melting point was 184 to 185 °C.
With `CC(C)(C)C(=O)COc1nn(CC(=O)C(C)(C)C)c(-c2ccc(S(C)(=O)=O)cc2)c1-c1ccc(F)cc1` [Example 25, 1-[3-(3,3-Dimethyl-2-oxobutoxy)-4-(4-fluorophenyl)-5-(4-(methylsulphonyl)phenyl)-1H-pyrazol-1-yl]-3,3-dimethylbutan-2-one] the melting point was 180 to 182 °C.
Compound `Cc1c(-c2cccc(C(F)(F)F)c2)oc2c(-c3ccc(F)cc3)c(-c3ccc(S(C)(=O)=O)cc3)nn12` [Example 46, 6-(4-(Methylsulphonyl)phenyl)-7-(4-fluorophenyl)-3-methyl-2-[3-(trifluoromethyl)phenyl]pyrazolo[5,1-b][1,3]oxazole] has a melting point of 194 to 195 °C.
For `CCc1coc2c(-c3ccc(F)cc3)c(-c3ccc(S(N)(=O)=O)cc3)nn12` [Example 62, 6-(4-(aminosulphonyl)phenyl)-3-Ethyl-7-(4-fluorophenyl)pyrazolo[5,1-b][1,3]oxazole], the melting point was 234 to 236 °C.
In the case of `Cc1oc2c(-c3ccc(F)cc3)c(-c3ccc(S(C)(=O)=O)cc3)nn2c1-c1ccc(Cl)s1` [Example 45, 3-(5-Chloro-2-thienyl)-7-(4-fluorophenyl)-2-methyl-6-(4-(methylsulphonyl)phenyl)pyrazolo[5,1-b][1,3]oxazole], the melting point is reported as 222 to 223 °C.
Compound `CC(=O)C(C)Oc1nn(C(C)C(C)=O)c(-c2ccc(S(C)(=O)=O)cc2)c1-c1ccc(F)cc1` (centres unmarked) [Example 17, 3-[4-(4-Fluorophenyl)-5-(4-methylsulfonylphenyl)-3-(1-methyl-2-oxopropoxy)-1H-pyrazol-1-yl]butan-2-one] has a melting point of 127 to 129 °C.
For `CS(=O)(=O)c1ccc(-c2nn3c4c(oc3c2-c2ccc(F)cc2)CCCC4)cc1` [Example 42, 3-(4-Fluorophenyl)-2-(4-(methylsulphonyl)phenyl)-5,6,7,8-tetrahydropyrazolo[5,1-b][1,3]benzoxazole], the melting point was 183 to 184 °C.
In the case of `CS(=O)(=O)c1ccc(-c2nn3c(-c4ccccc4)coc3c2-c2ccc(F)cc2)cc1` [Example 37, 7-(4-Fluorophenyl)-6-(4-(methylsulphonyl)phenyl)-3-phenylpyrazolo[5,1-b][1,3]oxazole], the melting point is reported as 151 to 154 °C.
`CS(=O)(=O)c1ccc(-c2nn3ccoc3c2-c2ccc(F)cc2)cc1` [Example 60, 7-(4-Fluorophenyl)-6-(4-(methylsulphonyl)phenyl)pyrazolo[5,1-b][1,3]oxazole] showed a melting point of 67 to 70 °C.
`CS(=O)(=O)c1ccc(-c2nn3c(-c4ccccc4)c(-c4ccccc4)oc3c2-c2ccc(F)cc2)cc1` [Example 38, 7-(4-Fluorophenyl)-6-(4-(methylsulphonyl)phenyl)-2,3-diphenylpyrazolo[5,1-b][1,3]oxazole] showed a melting point of 228 to 229 °C.
For `CCc1coc2c(-c3ccc(S(C)(=O)=O)cc3)c(-c3ccc(F)cc3)nn12` [Example 76, 6-(4-Fluorophenyl)-7-(4-(methylsulphonyl)phenyl)-3-ethylpyrazolo[5,1-b][1,3]oxazole], the melting point was 205 to 208 °C.
With `CS(=O)(=O)c1ccc(-c2nn3c(-c4ccc(F)cc4)coc3c2-c2ccc(F)cc2)cc1` [Example 36B, 3,7-Bis(4-fluorophenyl)-6-(4-(methylsulphonyl)phenyl)pyrazolo[5,1-b][1,3]oxazole] the melting point was 200 to 202 °C.
Compound `CS(=O)(=O)c1ccc(-c2c(-c3ccc(F)cc3)c(=O)n3n2Cc2c(Cl)cccc2-3)cc1` [Example 65, 8-Chloro-2-(4-fluorophenyl)-1-(4-(methylsulphonyl)phenyl)-3H,9H-pyrazolo[1,2-a]indazol-3-one] has a melting point of 237 to 240 °C.
For `Cc1oc2c(-c3ccc(F)cc3)c(-c3ccc(S(C)(=O)=O)cc3)nn2c1C` [Example 48, 7-(4-Fluorophenyl)-6-(4-methylsulfonylphenyl)-2,3-dimethylpyrazolo[5,1-b][1,3]oxazole], the melting point was 158 to 160 °C.
Work on `Cc1c(-c2ccc(F)cc2)oc2c(-c3ccc(F)cc3)c(-c3ccc(S(C)(=O)=O)cc3)nn12` [Example 43, 2,7-Bis(4-fluorophenyl)-3-methyl-6-(4-(methylsulphonyl)phenyl)pyrazolo[5,1-b][1,3]oxazole] yielded a melting point of 257 to 259 °C.
`Cc1cc(-c2coc3c(-c4ccc(F)cc4)c(-c4ccc(S(C)(=O)=O)cc4)nn23)ccc1Cl` [Example 47, 3-(4-Chloro-3-methylphenyl)-7-(4-fluorophenyl)-6-(4-(methylsulphonyl)phenyl)pyrazolo[5,1-b][1,3]oxazole] gave a melting point of 202 to 205 °C.
In the case of `Cc1oc2c(-c3ccc(F)cc3)c(-c3ccc(S(C)(=O)=O)cc3)nn2c1-c1cccs1` [Example 44, 7-(4-Fluorophenyl)-3-(2-thienyl)-2-methyl-6-(4-(methylsulphonyl)phenyl)pyrazolo[5,1-b][1,3]oxazole], the melting point is reported as 240 to 241 °C.
In the case of `CS(=O)(=O)c1ccc(-c2nn3c4c(oc3c2-c2ccc(F)cc2)COCC4)cc1` [Example 52, 3-(4-Fluorophenyl)-2-(4-methylsulfonylphenyl)-7,8-dihydro-5H-pyrazolo[5,1-b]pyrano[4,3-d][1,3]oxazole], the melting point is reported as 200 to 201 °C.
With `CCn1nc(OCC(=O)C(C)(C)C)c(-c2ccc(S(C)(=O)=O)cc2)c1-c1ccc(F)cc1` [Example 78, 1-[(1-Ethyl-5-(4-fluorophenyl)-4-(4-(methylsulphonyl)phenyl)-1H-pyrazol-3-yl)oxy]-3,3-dimethylbutan-2-one] the melting point was 63 to 66 °C.
For `CS(=O)(=O)c1ccc(-c2nn3c(c2-c2ccc(F)cc2)OCCC3)cc1` [Example 1, 3-(4-Fluorophenyl)-2-(4-(methylsulphonyl)phenyl)-6,7-dihydro-5H-pyrazolo[5,1-b][1,3]oxazine], the melting point was 198 to 200 °C.
Compound `CCc1coc2c(-c3ccc(F)cc3)c(-c3ccc(S(C)(=O)=O)cc3)nn12` [Example 61, 3-Ethyl-7-(4-fluorophenyl)-6-(4-(methylsulphonyl)phenyl)pyrazolo[5,1-b][1,3]oxazole] has a melting point of 177 to 179 °C.
In the case of `Cc1c(-c2ccc(F)cc2)oc2c(-c3ccc(S(C)(=O)=O)cc3)c(-c3ccc(F)cc3)nn12` [Example 74, 2,6-Bis(4-fluorophenyl)-3-methyl-7-(4-(methylsulphonyl)phenyl)pyrazolo[5,1-b][1,3]oxazole], the melting point is reported as 289 to 291 °C.
`CCC(=O)COc1nn(CC(=O)CC)c(-c2ccc(F)cc2)c1-c1ccc(S(C)(=O)=O)cc1` [Example 77, 1-[5-(4-Fluorophenyl)-4-(4-(methylsulphonyl)phenyl)-3-(2-oxobutoxy)-1H-pyrazol-1-yl]butan-2-one] showed a melting point of 56 to 58 °C.
In the case of `CS(=O)(=O)c1ccc(-c2nn3c4c(oc3c2-c2ccc(F)cc2)CSCC4)cc1` [Example 53, 3-(4-Fluorophenyl)-2-(4-methylsulfonylphenyl)-7,8-dihydro-5H-pyrazolo[5,1-b]thiopyrano[4,3-d][1,3]oxazole], the melting point is reported as 178 to 180 °C.
With `CS(=O)(=O)c1ccc(-c2nn3c(c2-c2ccc(F)cc2)OCCCC3)cc1` [Example 2, 3-(4-Fluorophenyl)-2-(4-(methylsulphonyl)phenyl)-5,6,7,8-tetrahydropyrazolo[5,1-b][1,3]oxazepine] the melting point was 167 to 168 °C.
Work on `CS(=O)(=O)c1ccc(-c2c(OCC(=O)c3ccc(F)cc3)nn(CC(=O)c3ccc(F)cc3)c2-c2ccc(F)cc2)cc1` [Example 75, 2-[5-(4-Fluorophenyl)-4-(4-(methylsulphonyl)phenyl)-3-(2-oxo-2-(4-fluorophenyl)ethoxy)-1H-pyrazol-1-yl]-1-(4-fluorophenyl)ethan-1-one] yielded a melting point of 191 to 193 °C.
With `CS(=O)(=O)c1ccc(-c2c(-c3ccc(F)cc3)c(OCc3c(F)cccc3Cl)nn2Cc2c(F)cccc2Cl)cc1` [Example 64, 1-(2-Chloro-6-fluorobenzyl)-3-[(2-chloro-6-fluorobenzyl)oxy]-4-(4-fluorophenyl)-5-(4-(methylsulphonyl)phenyl)-1H-pyrazole] the melting point was 195 to 196 °C.
`CS(=O)(=O)c1ccc(-c2c(-c3ccc(F)cc3)nn3c(-c4ccc(F)cc4)coc23)cc1` [Example 73, 3,6-Bis(4-fluorophenyl)-7-(4-methylsulfonylphenyl)pyrazolo[5,1-b][1,3]oxazole] gave a melting point of 289 to 291 °C.
For `CCOC(=O)c1oc2c(-c3ccc(F)cc3)c(-c3ccc(S(C)(=O)=O)cc3)nn2c1C` [Example 51, Ethyl 7-(4-Fluorophenyl)-6-(4-methylsulfonylphenyl)-3-methylpyrazolo[5,1-b][1,3]oxazole-2-carboxylate], the melting point was 203 to 204 °C.
With `CC=CC(=O)c1oc2c(-c3ccc(F)cc3)c(-c3ccc(S(C)(=O)=O)cc3)nn2c1C` [Example 58, 1-[7-(4-Fluorophenyl)-3-methyl-6-(4-(methylsulphonyl)phenyl)pyrazolo[5,1-b][1,3]oxazol-2-yl]but-2-en-1-one] the melting point was 197 to 199 °C.
Work on `Cc1oc2c(-c3ccc(F)cc3)c(-c3ccc(S(C)(=O)=O)cc3)nn2c1-c1ccccc1` [Example 41, 7-(4-Fluorophenyl)-2-methyl-6-(4-(methylsulphonyl)phenyl)-3-phenylpyrazolo[5,1-b][1,3]oxazole] yielded a melting point of 234 to 236 °C.
